The text below walks through data of US20090305954A1, “HISTIDINE-CONTAINING DIASTEREOMERIC PEPTIDES AND USES THEREOF” (Yeda Research and Development Co. Ltd., priority 2005, published 2009).

Series [1] has as its system pepsin, trypsin, and elastase. Description: Resistance to proteolytic digestion (reverse-phase HPLC). The format is in vitro ADME. The settings on record: after 2 hr, 140 μM peptide, 25 μM protease, 37° C. The protocol: In order to reach their target, the diastereomers have to withstand proteolytic digestion of proteases, which may occur after their administration and during the time until they reach the target site. The susceptibility of the peptides 13 and 14 to proteolytic digestion by pepsin (from porcine stomach mucosa, Sigma), trypsin (from bovine pancreas, Sigma), and elastase (from human leukocytes, Sigma) was assessed by reverse-phase HPLC. As a negative control, the all L-amino acid analog peptides were used. Equal amounts of the peptides were dissolved in PBS (35 mM phosphate buffer/0.15 M NaCl, pH 7.3) at a final concentration of 140 μM, to which 25 μM of protease were added. […] After the addition of the appropriate protease inhibitor to stop the reaction, aliquots were injected to C18 column and the amounts of the intact peptides 13 and 14 and their all L analogs were evaluated using their absorbance at 215 nm.

Series [2] has as its system 22RV1 human PC cells xenograft. Put plainly: Inhibition of tumor growth in human prostate cancer xenografts, 22RV1. Format: in vivo, nude male mice. Particulars: 22RV1 xenograft. The protocol:
(i) Inhibition of tumor growth in human prostate cancer xenografts. Subcutaneouse (s.c.) implantation of human PC cells in mice was done as previously described in Gavish et al. (Gavish et al. 2002). Briefly, 0.1 ml AI CL1 or 22RV1 human PC cells (5×10^6 cells) in Matrigel were inoculated s.c. into the dorsal side of five to six week-old nude male mice weighing 20-25 g (Harlen Co., Israel). Two weeks after cell implantation, when the tumors diameter reached ≧5 mm (denoted as day 1), the diastereomer 13 and its all L-amino acid analog peptide (at 1 mg/kg, 0.1 mM), or vehicle (PBS, pH=7.4) were injected intratumorally (dosing volume of 2.5 ml/kg) three times a week for a total of 9 doses. Tumor size was measured by a caliper and recorded twice a week during a period of 28 days. Mice were weighed and tumor weight (mg) was estimated by using the formula of length×width×depth×0.52 in mm^3, assuming the specific gravity to be 1. At the end of the treatment, the mice were killed, and the tumors were removed, photographed, and weighed. The animal experimentation was conducted according to the rules of the Institutional Animal Care and Use Committee.
Serum PSA levels. Four weeks after the first treatment, blood was withdrawn from the 22RV1-inoculated mice in order to determine the level of prostate specific antigen (PSA). The blood samples were taken directly to heparin containing tubes, centrifuged, and the supernatants were stored at −20° C. The CanAg PSA EIA kit (CanAg Diagnostics) was used to determine the total PSA in the mice plasma (Gavish et al., 2002). Tumor weight and PSA levels, represented as the mean±SE, were calculated from the raw data and then subjected to Student's t test. A value of P<0.05 was considered as statistically significant.

Series [3] relates to CL1 human prostate carcinoma cell line. Put plainly: XTT proliferation (cytotoxicity) assay, CL1. The format is cell-based. The protocol:
The CL1 human prostate carcinoma (PC) cell line is an androgen-independent (AI) subclone of LNCaP cell line, which was generated by culturing androgen-dependent (AD) LNCaP cells in charcoal-stripped, […], as described (Patel et al. 2000). 22RV1 human PC cells are AI sub-clones of the AD prostatic adenocarcinoma CWR22 xenograft (Sramkoski et al. 1999). CL1 and 22RV1 (ATCC, USA) were grown in RPMI-1640 supplemented with 10% FCS (Biological Industries, Beit Haemek, Israel). PC3 and DU145 are androgen-insensitive (AI) (non-responsive), invasive human prostate cancer cell lines. NIH-3T3 mouse fibroblast cell lines (ATCC, USA) were grown in DMEM supplemented with 10% BS. Murine Lewis lung carcinoma (LLC) cell lines were also grown in DMEM medium supplemented with 10% fetal calf serum and antibiotics under the same conditions as above.
The anticancer activity of the diastereomers 1, 5 and 11-16, 36-39, 42 and 44 was examined against human CL1 prostate cancer, murine LLC (Lewis lung carcinoma), DU 145 and PC3 cell lines. The cell selectivity of the diastereomeric peptides was also studied by examining their effect on NIH-3T3 normal mouse fibroblasts cell line.
A 96-well plate (Falcon) was used for the XTT proliferation assay. Cancer cells were grown for 24 hours (day 1) in RPMI-1640 medium ([…] cells/100 μl for LLC, CL1, 22RVI, DU 145 and PC3, respectively) supplemented with 10% fetal calf serum and antibiotics, at 37° C., in humidified atmosphere at 5% CO2 and 95% air, resulting in growth medium pH of 7.4. NIH-3T3 fibroblast cells (1×10^4 cells/100 μl) were grown in DMEM medium supplemented with 10% bovine calf serum and antibiotics under the same conditions as described above for the cancerous cells. Wells in the last two rows served as blanks (medium only, for measuring the background color of the medium) and 100% survival controls (cells and medium only without treatment), respectively.
In day 2, the peptides were dissolved in sterile PBS to a concentration of 200 μM (or 500 μM). The medium in the assay wells was replaced with 100 μl serum free medium. For the assays at pH 6, the medium was initially concentrated (×5 or ×10) and then diluted with double distilled water and addition of sodium carbonate. Before reaching the correct dilution, the medium was adjusted to pH 6 and then more water was added to reach the final dilution. The cells were grown in physiological pH, and the acidic pH was used only during the 24 hours incubation with the peptides. A sign for the correct acidity was a light yellow color of the medium. In line A of the plate, 160 μl of serum free medium was added, if the initial peptide concentration was 500 μM.
Peptide solutions, 100 μl (or 40 μl) were added to each assay well in line A, such that the final concentration of the peptide was […] and the volume 200 μl. The medium in the wells was mixed with multichannel pipette 5 times and 100 μl of it were transferred to the next row of wells (line B), to give a peptide concentration of 50 μM. The double dilution of the peptides continued downstream the plate in the same manner. The plates were then incubated for 24 h.
In day 3, XTT reaction solution was prepared by adding to 100 μl aliquots of activation solution (sodium 3′-[1-(phenyl-aminocarbonyl)-3,4-tetrazolium]-bis(4-methoxy-6-nitro) benzene sulfonic acid hydrate and N-methyl dibenzopyrazine methyl sulfate; mixed in a proportion of 50:1) (protected from light and kept in −20° C.), the substrate. 50 μl of XTT reaction solution were added to each well and the plates were incubated for 2 hours (37° C. and 5% CO2+95% air. In cases the incubation was not enough for the creation of the color, it was extended for up to 24 hours). The optical density was read at wavelength of 450 nm in an ELISA plate reader. Cell viability was determined relative to the control and final results were recorded. The results were confirmed using replications in at least three independent experiments. […]
Background: Tetrazolium dyes change colour on reduction, which living cells bring about.

Series [4] concerns 22RV1 prostate tumor lung metastases. Put plainly: Inhibition of prostate tumor-derived lung metastases formation. From the text: During the experiment, the mice were monitored continuously for clinical signs of toxicity.

The structures appear in SMILES notation. Square brackets hold non-standard residues; d marks the D form. Peptide text beside a SMILES is read from it.

In turn, `CC(C)C[C@H](NC(=O)[C@H](CC(C)C)NC(=O)[C@@H](CCCCN)NC(=O)[C@H](CC(C)C)NC(=O)[C@H](CC(C)C)NC(=O)[C@H](Cc1c[nH]cn1)NC(=O)[C@@H](CCCCN)NC(=O)[C@@H](CC(C)C)NC(=O)[C@H](CC(C)C)NC(=O)[C@@H](CCCCN)NC(=O)[C@H](Cc1c[nH]cn1)NC(=O)[C@H](CC(C)C)NC(=O)[C@@H](CC(C)C)NC(=O)[C@H](CCCCN)NC(=O)[C@@H](N)CC(C)C)C(N)=O` [Peptide 13] (H-LK[dL]LH[dK]L[dL][dK]HLL[dK]LL-NH2) came in with a proteases digestion in series [1] of around 50%. For the same molecule, the tumor weight entry in series [2] (1 mg/kg intratumorally, 9 doses) is given as “significant reduction”. In addition, the PSA serum levels result in series [2] (four weeks after first treatment) was “marked decrease”. For the same molecule, the “potency compared with diastereomer 1” value in series [3] (CL1, pH 6.0) is on record as “similarly or significantly more potent”. Moreover, the “Lethal Concentration (LC50)” value in series [3] (CL1, pH 6, 24 h) was determined as 6.25 µg/mL; in series [3] (CL1, pH 7.4, 24 h), 6.25 µg/mL. Moreover, the “body weight compared with vehicle treated control group” value in series [4] (mouse, in vivo) is recorded as “significant increase”. Further, the lung metastases result in series [4] (systemic administration, vs untreated controls) is listed as “entirely abolished”. Moreover, the “clinical signs of toxicity (condition of animals)” value in series [4] (throughout the assay period) is given as “good condition”.
